Data published in patent US20240018102A1, “COMPOUNDS AND COMPOSITIONS FOR TREATING CONDITIONS ASSOCIATED WITH LPA RECEPTOR ACTIVITY” (Lhotse Bio, Inc., priority 2020, published 2024).

Molecular target: T1, human LPA1 (Homo sapiens, UniProt Q92633)
T1 construct: expressed in transfected cells; host or cells: CHO-K1
Test: In vitro LPA1 calcium flux antagonist assay, Bioduro protocol
Type: cell-based
Details: CHO-K1 cells overexpressing human LPA1 and G15a; LPA challenge at EC80; calcium mobilization on FLIPR Tetra; read-out: IC50 (nM) in Assay B2
Method: In Vitro LPA1 Calcium Flux Antagonist Assay Bioduro Protocol
CHO-K1 cells overexpressing human LPA1 and G15a were seeded at a total volume of 20 uL (15000 cells/well) into Matrigel pre-coated 384-well plates (coming -3764) and incubated at 37° C. After overnight incubation, the cells were serum starved for 4 h. Assays were performed in dye loading buffer containing 1× Fluo-8 AM (AAT Bioquest, 21080) and 2.5 mM probenecid (Thermo Fisher, 36400) in HBSS/20 mM Hepes. After cell starvation, the medium was replaced with 20 uL of dye loading buffer and incubated at 37° C. for 30 min. Then 5 uL of 5× compound titrated in dye loading buffer was added to the cells and incubated for 30 min followed by LPA challenge at EC80. Calcium mobilization was measured on a FLIPR Tetra (MDS). For LPA EC80 determination, starved cells were incubated with 20 uL of dye loading buffer for 1 h, then 5 uL of 5×LPA titrated in dye loading buffer was added to the cells. Calcium signals induced by LPA was monitors on a FLIPR.
Percentage inhibition is calculated using the following formula:
% Inhibition=100%×(1−(mean RFU of test sample−mean RFU of DMSO)/(mean RFU of LPA control−mean RFU of DMSO)).

T1 sequence (Q92633 whole entry): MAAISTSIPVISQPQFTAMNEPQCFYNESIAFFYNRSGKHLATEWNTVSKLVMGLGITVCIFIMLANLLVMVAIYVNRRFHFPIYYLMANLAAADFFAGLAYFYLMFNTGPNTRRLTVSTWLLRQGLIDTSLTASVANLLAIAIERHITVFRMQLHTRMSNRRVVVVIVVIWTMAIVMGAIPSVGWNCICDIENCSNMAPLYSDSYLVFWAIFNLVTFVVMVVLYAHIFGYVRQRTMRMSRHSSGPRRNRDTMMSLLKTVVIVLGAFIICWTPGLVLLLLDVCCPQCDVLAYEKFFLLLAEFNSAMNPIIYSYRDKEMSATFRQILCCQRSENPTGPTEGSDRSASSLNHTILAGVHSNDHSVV

Structure (SMILES)	IC50 [nM]
COc1cc([C@@H](O)[C@H](Cc2cc3cccc(C(=O)O)n3n2)OC2Cc3ccccc3C2)cc(OC)c1C [Compound 264]	5.33
COc1cc([C@@H](O)[C@H](Cn2nc3cccc(C(=O)O)c3n2)OC2CCCC2)cc(OC)c1C [Compound 170]	> 10000
COc1cc(C(=O)O)c2nc(C[C@H](OC3CCCC3)[C@H](O)c3cc(OC)c(C)c(OC)c3)sc2c1 [Compound 247]	1.93
COc1cc([C@@H](O)[C@H](Cn2cc3c(=O)n(C)cc(C(=O)O)c3n2)OC2CCCC2)cc(OC)c1C [Compound 174]	103
COc1cc([C@@H](O)C(Cc2nc(C3(C(=O)O)CC3)c(C)s2)OC2CCCC2)cc(OC)c1C (some centres unmarked) [Compound 207]	723
CCc1cc(C(=O)O)n2nc(C[C@H](OCC(C)C)[C@H](O)c3cc(OC)c(C)c(OC)c3)cc2c1 [Compound 241]	26.7
COc1cc(C(=O)O)c2nc(C[C@H](OCC(C)C)[C@H](O)c3cc(OC)c(C)c(OC)c3)sc2c1 [Compound 236]	9.18
COc1cc([C@@H](O)[C@H](Cc2nc3c(C(=O)O)cc(C)cc3s2)OCC(C)C)cc(OC)c1C [Compound 234, 2-((2S,3R)-3-(3,5-dimethoxy-4-methylphenyl)-3-hydroxy-2-isobutoxypropyl)-6-methylbenzo[d]thiazole-4-carboxylic acid]	3.71
COc1cc([C@@H](O)[C@H](Cc2cc3c(OC)ccc(C(=O)O)n3n2)OC2Cc3ccccc3C2)cc(OC)c1C [Compound 276]	5
COc1cc([C@@H](O)[C@H](Cn2cc3nccc(C(=O)O)c3n2)OC2CCCC2)c(C)c(OC)c1C [Compound 199]	667
COc1c(C)ccc([C@@H](O)[C@H](Cn2cc3nccc(C(=O)O)c3n2)OC2CCCC2)c1Cl [Compound 200]	1130
COc1cc(C(=O)O)c2nn(C[C@H](OC3CCCC3)[C@H](O)c3cc(OC)c(C)c(OC)c3)cc2c1 [Compound 164]	11.9
COc1cc([C@H](O)[C@H](Cc2nc3c(C(=O)O)cccc3s2)OC2CCCC2)cc(OC)c1C [Compound 281]	717
COc1cc(C(=O)O)c2nc(C[C@@H](OC3CCCC3)[C@@H](O)c3cc(OC)c(C)c(OC)c3)sc2c1 [Compound 284]	> 10000
COc1cc([C@@H](O)[C@H](Cn2cc3nc(C#N)cc(C(=O)O)c3n2)OC2CCCC2)cc(OC)c1C [Compound 212]	10.8
COc1cc([C@@H](O)[C@H](Cn2cc3cc(F)cc(C(=O)O)c3n2)OC2CCCC2)cc(OC)c1C [Compound 154]	8.64
Cc1ccc([C@@H](O)[C@H](Cn2cc3cccc(C(=O)O)c3n2)OC2CCCC2)cc1O [Compound 151]	≥ 10000
Cc1ccc([C@@H](O)[C@H](Cn2cc3cc(C#N)cc(C(=O)O)c3n2)OC2CCCC2)cc1OC(F)(F)F [Compound 228]	62.2
COc1cc([C@@H](O)[C@H](Cc2cc3cc(C4CC4)cc(C(=O)O)n3n2)OCC(C)C)cc(OC)c1C [Compound 242]	7.5
COc1cc([C@@H](O)[C@H](Cc2nc3c(C(=O)O)cc(C(F)(F)F)cc3s2)OC2CCCC2)cc(OC)c1C [Compound 244]	3.34

Structure (SMILES)	IC50 [nM]
COc1cc([C@@H](O)[C@H](Cn2cc3cccc(C#N)c3n2)OC2CCCC2)cc(OC)c1C [Compound 183]	> 10000
COc1cc([C@@H](O)[C@H](Cn2cc3nccc(C(=O)O)c3n2)OC2CCCC2)c(Cl)c(OC)c1C [Compound 202]	4260
COc1cc(C(=O)O)n2nc(C[C@H](OC3CCCC3)[C@H](O)c3cc(OC)c(C)c(OC)c3)cc2c1 [Compound 235]	40.8
COc1cc([C@@H](O)[C@H](Cn2cc3c(C(F)(F)F)ccc(C(=O)O)c3n2)OC2CCCC2)cc(OC)c1C [Compound 186]	7640
CCCc1cc(C(=O)O)c2nn(C[C@H](OC3CCCC3)[C@H](O)c3cc(OC)c(C)c(OC)c3)cc2n1 [Compound 219]	20.4
COc1cc([C@@H](O)C(Cc2nc(CC(=O)O)c(C(=O)O)s2)OC2CCCC2)cc(OC)c1C (some centres unmarked) [Compound 206]	2120
CCCc1sc(C[C@H](OC2CCCC2)[C@H](O)c2cc(OC)c(C)c(OC)c2)nc1CC(=O)O [Compound 179]	20.3
COC(=O)c1sc(C[C@H](OC2CCCC2)[C@H](O)c2cc(OC)c(C)c(OC)c2)nc1CC(=O)O [Compound 152]	8.53
CCCc1sc(C[C@H](OCC(C)C)[C@H](O)c2cc(OC)c(C)c(OC)c2)nc1C(C)C(=O)O (some centres unmarked) [Compound 267]	103
CCOc1cc([C@@H](O)[C@H](Cn2cc3cc(C#N)cc(C(=O)O)c3n2)OC2CCCC2)cc(OCC)c1C [Compound 226]	28.9
COc1cc([C@@H](O)[C@H](Cn2cc3cc(C(F)F)cc(C(=O)O)c3n2)OC2CCCC2)cc(OC)c1C [Compound 162]	3.93
COc1cc([C@@H](O)[C@H](Cn2cc3cccc(C(=O)O)c3n2)OC2CCCC2)cc(OC)c1OC [Compound 147]	126
COc1cc([C@@H](O)[C@H](Cn2cc3cc(C4CC4)nc(C(=O)O)c3n2)OC2CCCC2)cc(OC)c1C [Compound 231]	11.1
COc1cc([C@@H](O)[C@H](Cn2cc3nc(Cl)cc(C(=O)O)c3n2)OC2CCCC2)cc(OC)c1C [Compound 198]	6.87
COc1cc([C@@H](O)[C@H](Cc2cn3cc(C)cc(C(=O)O)c3n2)OC2CCCC2)cc(OC)c1C [Compound 217]	1300
COc1cc([C@@H](O)[C@H](Cc2nc3c(C(=O)O)cccc3s2)OC2Cc3ccccc3C2)cc(OC)c1C [Compound 273]	3.81
COc1cc([C@@H](O)[C@H](Cn2cc3nc(C)cc(C(=O)O)c3n2)OC2CCCC2)cc(OC)c1C [Compound 194]	26.9
COCc1sc(C[C@H](OC2CCCC2)[C@H](O)c2cc(OC)c(C)c(OC)c2)nc1CC(=O)O [Compound 249]	60.2
COc1cc([C@@H](O)[C@H](Cc2nc(CC(=O)O)c(C)s2)OC2CCCC2)cc(OC)c1C [Compound 177, 2-(2-((2S,3R)-2-(cyclopentyloxy)-3-(3,5-dimethoxy-4-methylphenyl)-3-hydroxypropyl)-5-methylthiazol-4-yl)acetic acid]	154
CCOc1cc([C@@H](O)[C@H](Cn2cc3cncc(C(=O)O)c3n2)OC2CCCC2)cc(OCC)n1 [Compound 208]	≥ 10000

Structure (SMILES)	IC50 [nM]
COc1cc([C@@H](O)[C@H](Cn2cc3nccc(C(=O)O)c3n2)OC2CCCC2)ccc1C(F)F [Compound 189]	454
COc1cc([C@@H](O)[C@H](Cn2cc3cccc(C(=O)O)c3n2)OC2CCC(F)(F)CC2)cc(OC)c1C [Compound 149]	299
COc1cc([C@@H](O)[C@H](Cn2cc3nc(C4CC4)cc(C(=O)O)c3n2)OC2CCCC2)cc(OC)c1C [Compound 196]	16.3
COc1cc([C@@H](O)[C@H](Cn2cc3cc(C#N)cc(C(=O)O)c3n2)OC2CCCC2)ccc1C1CC1 [Compound 227]	149
CCOc1cc([C@@H](O)[C@H](Cn2cc3nccc(C(=O)O)c3n2)OC2CCCC2)cc(OCC)c1C(C)=O [Compound 204]	122
CCOc1cc([C@@H](O)[C@H](Cn2cc3nccc(C(=O)O)c3n2)OC2CCCC2)cc(OCC)c1C [Compound 203]	530
COc1c(C)ccc([C@@H](O)[C@H](Cn2cc3nccc(C(=O)O)c3n2)OC2CCCC2)c1F [Compound 193]	757
COc1cc([C@@H](O)[C@H](Cc2nc3c(C(=O)O)cccc3n2C)OC2CCCC2)cc(OC)c1C [Compound 175]	> 10000
COc1cc([C@@H](O)[C@H](Cc2nc3cccc(C(=O)O)n3n2)OC2CCCC2)cc(OC)c1C [Compound 167]	> 10000
COc1cc([C@@H](O)[C@H](Cc2cn3nccc(C(=O)O)c3n2)OC2CCCC2)cc(OC)c1C [Compound 156]	301
COc1cc([C@@H](O)[C@H](Cc2cc3cc(C4CC4)cc(C(=O)O)n3n2)OC2CCCC2)cc(OC)c1C [Compound 229]	7.26
COc1cc([C@@H](O)[C@H](Cn2cc3nccc(C(=O)O)c3n2)OCCc2ccccc2)cc(OC)c1C [Compound 184]	24
COc1cc([C@@H](O)[C@H](Cn2cc3nccc(C(=O)O)c3n2)OCCc2ccc(F)cc2)cc(OC)c1C [Compound 187]	132
COc1cc([C@@H](O)[C@H](Cn2cc3ccc(F)c(C(=O)O)c3n2)OC2CCCC2)cc(OC)c1C [Compound 155]	308
CCc1cc(C(=O)O)c2nc(C[C@H](OC3CCCC3)[C@H](O)c3cc(OC)c(C)c(OC)c3)sc2c1 [Compound 255]	5.75
CCc1cc(C(=O)O)c2nc(C[C@H](OCC(C)C)[C@H](O)c3cc(OC)c(C)c(OC)c3)sc2c1 [Compound 254]	8.93
COc1cc([C@@H](O)[C@H](Cn2cc3nccc(C(=O)O)c3n2)OC2CCCC2)cc(OC)c1C(F)F [Compound 215]	140
COc1cc([C@@H](O)[C@H](Cn2cc3cccc(C(=O)O)c3n2)OC2CCCCC2)ccc1C(F)F [Compound 148]	525
COc1cc([C@@H](O)[C@H](Cc2nc3c(C(=O)O)cccc3s2)OC2CCCC2)cc(OC)c1C [Compound 157, 2-((2S,3R)-2-(cyclopentyloxy)-3-(3,5-dimethoxy-4-methylphenyl)-3-hydroxypropyl)benzo[d]thiazole-4-carboxylic acid]	6.3
